This passage reports RP-LC retention time results from the METLIN SMRT retention time set (Domingo-Almenara et al. 2019).

Structures are written as SMILES.

The nature of the data set: gradient 5% acetonitrile 3 min, to 50% in 2 min, to 85% in 15 min, held 3 min, 100 µL/min. The settings on record: column: Zorbax Extend-C18 2.1 x 50 mm; eluents: water / acetonitrile, 0.1% formic acid. In short, it runs like this:
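Standards, all pure, were combined into mixtures of ~100 molecules and run at 100 μL/min on a Zorbax Extend-C18 column (2.1 × 50 mm, 1.8 μm) with water and acetonitrile, each containing 0.1% formic acid. A coupled quadrupole time-of-flight mass spectrometer operated in positive and negative ionization mode. Retention time values come from computationally picked adduct peaks, each inspected manually.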
On to `Cc1ccc(CNC(=O)c2cccc(CN3C(=O)C4CCCN4C(=O)c4ccccc43)c2)o1` (stereo not drawn), for which the RP-LC retention time turned out to be 757 s.

As for `O=C(NCc1cccs1)C1CCN(c2cnc(N3CCCCCC3)nc2)CC1`, the RP-LC retention time came out at 732 s.

`Cc1ccc(-c2nc(NC(=O)CCc3ccccc3)sc2C)cc1` came in with an RP-LC retention time of 1150 s.

The compound `Cc1csc(-c2cc(S(=O)(=O)Nc3ccc(Cl)cc3)cn2CC(=O)N2CCCC2)n1` had an RP-LC retention time of 947 s.

`O=C(Cn1cnc2nc(N3CCCC(C(=O)NC4CC4)C3)sc2c1=O)Nc1cccc(F)c1` (stereo not drawn) yielded an RP-LC retention time of 655 s.

`Cc1nc2cc(N3CCCC(C(=O)Nc4ccc5c(c4)OCCO5)C3)cnc2nc1C` (stereo not drawn): the RP-LC retention time was 711 s.

With `O=C(NC1CCc2nnc(C3CC3)n2CC1)c1cc(C2CC2)[nH]n1` (stereo not drawn), the RP-LC retention time was determined as 581 s.

`Cc1cccc(CN2CCCn3nc(C(=O)NCc4cccs4)cc3C2=O)c1` registered an RP-LC retention time of 874 s.

`COc1ccccc1-c1nc(Cn2nnc(-c3nc(-c4cccc(C(F)(F)F)c4)no3)c2C)c(C)o1` registered an RP-LC retention time of 1250 s.

With `O=C(c1cc(-c2ccncc2)n[nH]1)N1CCC(C(=O)N2CCc3ccccc32)CC1`, the RP-LC retention time came to 614 s.

Turning to `CCn1cnc2ccc(-c3noc(-c4ccoc4)n3)cc21`, the RP-LC retention time came to 683 s.

Turning to `O=C(CCC[C@@H]1[C@H]2CCCN3CCC[C@@H](CN1C(=O)COc1ccc(Cl)cc1)[C@@H]23)N1CCOCC1`, the RP-LC retention time worked out at 626 s.

`Cc1nc(CSCC(=O)Nc2ccc(Cl)cc2)cs1` had an RP-LC retention time of 778 s.

For the compound `COc1cccc(-c2nc(C3CCN(S(=O)(=O)c4ccc(C(C)C)cc4)CC3)no2)c1`, the RP-LC retention time is 1300 s.

In turn, `Cc1ccc(Cn2c(C(=O)NC3CCC(C)CC3)cc3sccc32)cc1` (stereo not drawn) came in with an RP-LC retention time of 1340 s.

For the compound `CN(C)C(=O)N1CC(c2noc(-c3cccnc3)n2)C2(CCOCC2)C1` (stereo not drawn), the RP-LC retention time stood at 634 s.

In turn, `O=C1CCCc2cc(S(=O)(=O)NCC3CCN(Cc4cccc(F)c4)CC3)ccc2N1` had an RP-LC retention time of 606 s.

Compound `CC1CCN(c2nc(-c3ccc(C(C)(C)C)cc3)nc3ccccc23)CC1` yielded an RP-LC retention time of 1070 s.

For `Cc1cc(C)cc(OCc2nc(CCN(C)C(=O)Nc3ccccc3)no2)c1`, the RP-LC retention time came to 970 s.

Take `CCC(=O)N1CCc2c(sc3ncnc(NCCc4ccccc4)c23)C1`: the RP-LC retention time turned out to be 834 s.

`COC(=O)c1cc(OCC(=O)Nc2ccccc2)c2cc(OC)c(OC)cc2n1`: the RP-LC retention time is 711 s.

`Cc1cccc(CNC(=O)Cn2c(=O)c3nnc(C)n3c3ncccc32)c1` yielded an RP-LC retention time of 685 s.

Compound `COCCN(CCOC)c1ncnc2c1cnn2-c1ccc(C)cc1C` came in with an RP-LC retention time of 902 s.

In turn, `Cc1ccc(-c2noc(Cc3nnc(-c4cccc(Cl)c4)o3)n2)cc1C` showed an RP-LC retention time of 1210 s.

In turn, `COc1ccc(S(=O)(=O)N2CCCC(C(=O)N(C)Cc3ccccc3)C2)cc1OC` (stereo not drawn) came in with an RP-LC retention time of 859 s.

With `O=C(NC1CCCCCC1)C1=C2CCCN2c2ccc(F)cc2S1(=O)=O`, the RP-LC retention time was 970 s.

For `c1cc2c(cc1-c1noc(C3CCC3)n1)ncn2CCN1CCCC1`, the RP-LC retention time came out at 596 s.

As to `Cc1cc(NS(=O)(=O)c2cc(-c3[nH]ncc3C(=O)N3CCOCC3)oc2C)ccc1F`, the RP-LC retention time turned out to be 691 s.

Consider `CC(C)c1cnc2c(c1SCc1cccnc1)c(=O)n(C)c(=O)n2C`, for which the RP-LC retention time worked out at 691 s.

Regarding `CCc1nc(-c2csc(S(=O)(=O)N3CCC(C(=O)NCc4ccccc4C)CC3)c2)no1`, the RP-LC retention time worked out at 818 s.

In turn, `Cc1nc2cc(-c3noc(CCc4c[nH]c5ccccc45)n3)ccc2o1` yielded an RP-LC retention time of 1020 s.

For the compound `CCC(Oc1ccc(=O)n(-c2ccc(F)cc2)n1)C(=O)Nc1cc(OC)c(OC)c(OC)c1` (stereo not drawn), the RP-LC retention time was found to be 592 s.

With `COc1ccccc1N1CCN(S(=O)(=O)c2cc(-c3nnc(C4CCC4)o3)co2)CC1`, the RP-LC retention time was determined as 1020 s.

With `Cc1ccc(NC(=O)CCC(=O)O)c(C)c1`, the RP-LC retention time was 627 s.

`O=C(Cn1cccc(-c2nc(-c3ccccc3)no2)c1=O)Nc1cc(C(F)(F)F)ccc1Cl` had an RP-LC retention time of 1040 s.

Consider `CCn1ncn2cc(S(=O)(=O)Nc3ccc(Cl)cc3)cc2c1=O`, for which the RP-LC retention time was found to be 792 s.

As to `CNC1(C)[C@H]2CC[C@H](C2)C1(C)C` (stereo partly drawn), the RP-LC retention time was 606 s.

Regarding `O=C(OCc1cccnc1)c1cn(-c2cccc(F)c2)c(=O)c2ccccc12`, the RP-LC retention time worked out at 753 s.

Take `Cc1ccccc1CSc1nnc2c(S(=O)(=O)N3CCCC3)cccn12`: the RP-LC retention time was determined as 861 s.

`NC(=O)CSc1nc(-c2ccccc2)c(NC(=O)c2cc3ccccc3o2)s1`: the RP-LC retention time is 797 s.

`Cc1noc2ncnc(N3CCC(C(=O)NCCCN4CCCCC4C)CC3)c12` (stereo not drawn) yielded an RP-LC retention time of 587 s.

`Cc1nc2c(sc3nc(-c4ccccc4)ccc32)c(=O)n1CC(=O)Nc1ccc(Cl)cc1` yielded an RP-LC retention time of 1120 s.

`O=C(Nc1cnc(N2CCCC2)nc1)c1cccc(F)c1` yielded an RP-LC retention time of 716 s.

As to `O=c1oc2c(CN3CCCC3)c(O)ccc2c2c1CCC2`, the RP-LC retention time amounted to 588 s.

`CCC(CO)NCc1ccc(-c2cccc(Cl)c2)o1` (stereo not drawn): the RP-LC retention time came out at 658 s.

Turning to `CC(C)N1CCC(CC(=O)N2CCc3c(c(-c4nc(-c5ccccc5)no4)nn3C)C2)CC1`, the RP-LC retention time is 654 s.

In turn, `COc1ccc(N2CCN(C(=O)C3CCN(S(=O)(=O)c4cn(C)c(C)n4)CC3)CC2)cc1` gave an RP-LC retention time of 651 s.

In turn, `CCC1Oc2ccc(S(=O)(=O)N3CCC(C(=O)NCc4cccc(C)c4)CC3)cc2NC1=O` (stereo not drawn) yielded an RP-LC retention time of 893 s.

Take `Cc1[nH]ncc1CNC(=O)C1CCN(C(=O)c2ncn3c2COC(c2ccc(F)cc2)C3)CC1` (stereo not drawn): the RP-LC retention time was determined as 626 s.

Take `Cc1ccc2c(c1)NC(=O)C(CC(=O)N1CCN(c3cccc(C)c3C)CC1)CO2` (stereo not drawn): the RP-LC retention time came to 781 s.

Turning to `COc1ccc(C(C)NC(=O)c2nnc(-c3ccc(S(=O)(=O)N(C)C)cc3)o2)cc1` (stereo not drawn), the RP-LC retention time is 893 s.

`CCOC(=O)C1CCN(C(=O)Cn2c(=O)c3cccn3c3ccc(F)cc32)CC1` came in with an RP-LC retention time of 802 s.

For the compound `Cc1ccc(Cn2c(CN3CCC(C(=O)NC4CC4)CC3)cc3ccccc32)cc1`, the RP-LC retention time was determined as 716 s.

The compound `COCCCNC(=O)c1nccnc1NC(=O)c1ccc(C)cc1` showed an RP-LC retention time of 791 s.

In the case of `Cc1ccc(C2=NC3(CCN(C(=O)c4ccoc4)CC3)ON2)cc1`, the RP-LC retention time was determined as 752 s.

In turn, `COc1ccc(-c2cc(C(=O)Nc3cc(C)cc(C)c3)nn2C2CCS(=O)(=O)C2)cc1` (stereo not drawn) gave an RP-LC retention time of 741 s.

In turn, `O=C(Nc1nccn(-c2ccc3c(c2)CCC3)c1=O)c1ccc(Cl)cc1` displayed an RP-LC retention time of 962 s.

For the compound `O=C(CCc1nc2ccccc2n(CC(=O)NC2CCCCC2)c1=O)NC1CCCCC1`, the RP-LC retention time came to 844 s.

With `O=C(NCc1ccco1)C(=O)NCC1OCCN1C(=O)c1ccc(Cl)cc1` (stereo not drawn), the RP-LC retention time was 705 s.

In turn, `CC1CCN(S(=O)(=O)c2cc(C(=O)NCc3ccc(Br)cc3)n(C)c2)CC1` registered an RP-LC retention time of 1080 s.

For the compound `CCCC(=O)Nc1cc(-c2nc3ccc(C)cc3[nH]2)ccc1C`, the RP-LC retention time was found to be 650 s.

Take `O=C(C1CC1)N1CCc2sc(S(=O)(=O)NCc3ccccc3)cc2C1`: the RP-LC retention time turned out to be 795 s.

As for `O=C(CSc1cc(N2CCN(c3ccccc3F)CC2)ncn1)NCc1ccccc1`, the RP-LC retention time worked out at 1110 s.

Regarding `CCc1nc2cc(-c3noc(-c4ccnn4C)n3)ccc2o1`, the RP-LC retention time came out at 971 s.

Turning to `CSc1ccc(C(C(C(=O)c2ccco2)N2CCOCC2)N2CCOCC2)cc1` (stereo not drawn), the RP-LC retention time turned out to be 698 s.

`CC(=O)[C@@]1(O)[C@H](C)C[C@H]2[C@@H]3C=C(C)C4=Cc5c(cnn5-c5ccccc5)C[C@]4(C)[C@H]3[C@@H](O)C[C@@]21C` yielded an RP-LC retention time of 1200 s.

The compound `Cc1nnc2n1CCC(N(C)C(=O)Cc1cccs1)CC2` (stereo not drawn) yielded an RP-LC retention time of 571 s.

On to `COc1cccc(CNC(=O)C2(C)CCCN(C(=O)Nc3ccc(F)cc3)C2)c1` (stereo not drawn), for which the RP-LC retention time is 858 s.

As to `Fc1ccccc1-c1noc(-c2nc(-c3ccncc3)no2)n1`, the RP-LC retention time was 951 s.

On to `O=C(C1CCN(S(=O)(=O)N2CCOCC2)CC1)N1CCC(c2nc(C3CCOCC3)no2)CC1`, for which the RP-LC retention time was found to be 674 s.

In turn, `COC(=O)CCc1sc(Nc2ccc(OC)cc2)nc1-c1ccc(OC)cc1` yielded an RP-LC retention time of 909 s.

Compound `CN1CCCn2cc(S(=O)(=O)Nc3ccc(Cl)cc3F)cc2C1=O` had an RP-LC retention time of 727 s.

As to `Cc1cccc(-c2noc(Cn3c(=O)n(-c4ccc(F)cc4)c(=O)c4sccc43)n2)c1`, the RP-LC retention time turned out to be 1030 s.

As for `O=C(CSc1nnc(-c2ccncc2)o1)NCc1ccc2c(c1)OCO2`, the RP-LC retention time turned out to be 596 s.

As for `Cc1oc(-c2ccc(Cl)cc2)nc1CN1CCCC(C(=O)NC2CCCCCC2)C1` (stereo not drawn), the RP-LC retention time amounted to 810 s.

With `CC(C)N1CCn2cc(S(=O)(=O)Nc3ccc(C#N)cc3)cc2C1=O`, the RP-LC retention time was found to be 719 s.

For the compound `O=C(NCCc1cccs1)C1CCN(C(=O)c2ncn3c2COC(c2ccc(F)cc2)C3)CC1` (stereo not drawn), the RP-LC retention time was determined as 774 s.

Turning to `COc1ccc(-c2nc3cnccn3c2Nc2ccc(C(=O)NCc3ccco3)cc2)cc1OC`, the RP-LC retention time worked out at 682 s.
